Each structure is given as a SMILES string. pEC50, pIC50: −log10 of the molar value.

The pEC50 is the EC50 on a negative log10 scale, so that one unit is a factor of ten. High values mean a low EC50, low ones a high EC50. The term pIC50 denotes −log10 of the IC50, conventionally taken in molar units. Low values mean a large IC50, high ones a small IC50.

The target of the first test is T1, Melanocortin receptor 4 (Homo sapiens, UniProt P32245). The experiment in a line: Maximum percentage of cAMP accumulation relative to alpha-MSH at human melanocortin 4 receptor at 10 uM. It is filed as functional. (cAMP levels reflect the balance of adenylyl cyclase and phosphodiesterase activity.)
T1 sequence (P32245 whole entry): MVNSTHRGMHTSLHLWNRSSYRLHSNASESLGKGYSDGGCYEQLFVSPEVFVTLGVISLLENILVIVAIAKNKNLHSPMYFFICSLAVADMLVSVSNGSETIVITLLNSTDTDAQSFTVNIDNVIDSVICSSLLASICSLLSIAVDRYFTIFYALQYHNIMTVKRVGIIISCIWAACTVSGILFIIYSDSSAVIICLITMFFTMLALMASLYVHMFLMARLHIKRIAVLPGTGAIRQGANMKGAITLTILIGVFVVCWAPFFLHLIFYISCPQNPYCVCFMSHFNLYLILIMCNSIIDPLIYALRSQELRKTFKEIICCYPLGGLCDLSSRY
`COc1ccc([C@H]2CNC[C@@H]2C(=O)N[C@H](C)CCc2cc(Sc3ccc(Cl)cc3)nn(-c3ccc(OC)cc3)c2=O)cc1` registered a Max of 67%.

Take `COc1ccc(N2N=C(Sc3ccc(Cl)cc3)CC(CC[C@@H](C)NC(=O)[C@@H]3CNCC[C@H]3c3ccc(F)cc3)C2=O)cc1` (stereo in doubt; 61): the Max was determined as 32%.

The molecule `COc1ccc(-n2nc(Sc3ccc(Cl)cc3)cc(CC[C@@H](C)N(C)C(=O)C3CNCCC3c3ccc(F)cc3)c2=O)cc1` (some centres undefined) came in with a Max of 94%.

`COc1ccc(-n2nc(Sc3ccc(Cl)cc3)cc(CC[C@@H](C)NC(=O)[C@@H]3CNCCN3c3ccc(F)cc3)c2=O)cc1` had a Max of 75%.

The molecule `COc1ccc(-n2nc(Sc3ccc(Cl)cc3)cc(CC[C@@H](C)NC(=O)[C@H]3CCNC[C@@H]3c3ccccc3F)c2=O)cc1` displayed a Max of 75%.

For the molecule `COc1ccc(-n2nc(Sc3ccc(Cl)cc3)cc(CC[C@@H](C)NC(=O)[C@H]3CNC[C@@H]3c3ccc(F)cc3F)c2=O)cc1`, the Max is 81%.

The molecule `COc1ccc(-n2nc(Sc3ccc(Cl)cc3)cc(CC[C@@H](C)NC(=O)[C@H]3CNC[C@@H]3c3ccccc3)c2=O)cc1` showed a Max of 103%.

On to `COc1ccc(-n2nc(Sc3ccc(Cl)cc3)cc(CC[C@@H](C)NC(=O)[C@H]3CNC[C@@H]3c3ccc(C)cc3)c2=O)cc1`, for which the Max worked out at 67%.

For `COc1ccc(-n2nc(Sc3ccc(Cl)cc3)cc(CC[C@@H](C)NC(=O)[C@H]3CNC[C@@H]3c3ccc(Cl)cc3)c2=O)cc1`, the Max was 70%.

`COc1ccc(-n2nc(Sc3ccc(Cl)cc3)cc(CC[C@@H](C)NC(=O)[C@H]3CNC[C@@H]3c3ccccc3F)c2=O)cc1`: the Max was determined as 82%.

`COc1ccc(N2N=C(Sc3ccc(Cl)cc3)CC(CC[C@@H](C)NC(=O)C3CNC[C@@H]3c3ccc(F)cc3)C2=O)cc1` (single isomer, unassigned; 66) showed a Max of 90%.

Molecule `COc1ccc(-n2nc(Sc3ccc(Cl)cc3)cc(CC[C@@H](C)NC(=O)[C@H]3CN(C)CC[C@@H]3c3ccc(F)cc3)c2=O)cc1` yielded a Max of 59%.

The molecule `COc1ccc(-n2nc(Sc3ccc(Cl)cc3)cc(CC[C@@H](C)NC(=O)[C@H]3CCNC[C@@H]3c3ccccc3)c2=O)cc1` came in with a Max of 85%.

With `COc1ccc(-n2nc(Sc3ccc(Cl)cc3)cc(CC[C@@H](C)NC(=O)[C@H]3CCNC[C@@H]3c3ccc(Cl)cc3)c2=O)cc1`, the Max was determined as 101%.

On to `COc1ccc(-n2nc(Sc3ccc(Cl)cc3)cc(CC[C@@H](C)NC[C@H]3CNCC[C@@H]3c3ccc(F)cc3)c2=O)cc1`, for which the Max was 60%.

In the case of `COc1ccc(N2N=C(Sc3ccc(Cl)cc3)CC(CC[C@@H](C)NC(=O)C3CNC[C@H]3c3ccc(F)cc3)C2=O)cc1` (single isomer, unassigned; 68), the Max stood at 26%.

Consider `COc1ccc(N2N=C(Sc3ccc(Cl)cc3)CC(CC[C@@H](C)NC(=O)C3CNC[C@H]3c3ccc(F)cc3)C2=O)cc1` (single isomer, unassigned; 69), for which the Max was 48%.

Take `COc1ccc(-n2nc(Sc3ccc(Cl)cc3)cc(CC[C@@H](C)NC(=O)[C@H]3CCNC[C@@H]3c3ccc(Cl)cc3Cl)c2=O)cc1`: the Max amounted to 30%.

`COc1ccc(-n2nc(Sc3ccc(Cl)cc3)cc(CC[C@@H](C)NC(=O)[C@H]3CNCC[C@@H]3c3cccc(Cl)c3)c2=O)cc1` returned a Max of 37%.

As to `COc1ccc(-n2nc(Sc3ccc(Cl)cc3)cc(CC[C@@H](C)NC(=O)[C@H]3CNCC[C@@H]3c3ccc(Cl)cc3)c2=O)cc1`, the Max worked out at 39%.

Regarding `COc1ccc(-n2nc(Sc3ccc(Cl)cc3)cc(CC[C@@H](C)NC(=O)[C@H]3CCNC[C@@H]3c3ccc(C#N)cc3)c2=O)cc1`, the Max turned out to be 81%.

In turn, `COc1ccc(N2N=C(Sc3ccc(Cl)cc3)CC(CC[C@@H](C)NC(=O)[C@@H]3CCNC[C@H]3c3ccc(F)cc3)C2=O)cc1` (stereo in doubt; 65) displayed a Max of 33%.

The next test addresses T1, Melanocortin receptor 4. The experiment in a line: Effective concentration at human melanocortin 4 receptor in cAMP release assay. It is filed as functional.
As for `COc1ccc([C@H]2CNC[C@@H]2C(=O)N[C@H](C)CCc2cc(Sc3ccc(Cl)cc3)nn(-c3ccc(OC)cc3)c2=O)cc1`, the pEC50 was 6.37.

Consider `COc1ccc(-n2nc(Sc3ccc(Cl)cc3)cc(CC[C@@H](C)N(C)C(=O)C3CNCCC3c3ccc(F)cc3)c2=O)cc1` (some centres undefined), for which the pEC50 was 6.39.

For `COc1ccc(-n2nc(Sc3ccc(Cl)cc3)cc(CC[C@@H](C)NC(=O)[C@@H]3CNCCN3c3ccc(F)cc3)c2=O)cc1`, the pEC50 was 5.96.

For the molecule `COc1ccc(-n2nc(Sc3ccc(Cl)cc3)cc(CC[C@@H](C)NC(=O)[C@H]3CCNC[C@@H]3c3ccccc3F)c2=O)cc1`, the pEC50 is 6.26.

`COc1ccc(-n2nc(Sc3ccc(Cl)cc3)cc(CC[C@@H](C)NC(=O)[C@H]3CNC[C@@H]3c3ccc(F)cc3F)c2=O)cc1` gave a pEC50 of 6.70.

`COc1ccc(-n2nc(Sc3ccc(Cl)cc3)cc(CC[C@@H](C)NC(=O)[C@H]3CNC[C@@H]3c3ccccc3)c2=O)cc1`: the pEC50 is 6.40.

`COc1ccc(-n2nc(Sc3ccc(Cl)cc3)cc(CC[C@@H](C)NC(=O)[C@H]3CNC[C@@H]3c3ccc(C)cc3)c2=O)cc1`: the pEC50 was 6.12.

`COc1ccc(-n2nc(Sc3ccc(Cl)cc3)cc(CC[C@@H](C)NC(=O)[C@H]3CNC[C@@H]3c3ccc(Cl)cc3)c2=O)cc1` had a pEC50 of 6.64.

As for `COc1ccc(-n2nc(Sc3ccc(Cl)cc3)cc(CC[C@@H](C)NC(=O)[C@H]3CNC[C@@H]3c3ccccc3F)c2=O)cc1`, the pEC50 was 6.15.

In the case of `COc1ccc(-n2nc(Sc3ccc(Cl)cc3)cc(CC[C@@H](C)NC(=O)[C@H]3CN(C)CC[C@@H]3c3ccc(F)cc3)c2=O)cc1`, the pEC50 is 6.49.

As to `COc1ccc(-n2nc(Sc3ccc(Cl)cc3)cc(CC[C@@H](C)NC(=O)[C@H]3CCNC[C@@H]3c3ccc(Cl)cc3)c2=O)cc1`, the pEC50 was 6.82.

`COc1ccc(-n2nc(Sc3ccc(Cl)cc3)cc(CC[C@@H](C)NC[C@H]3CNCC[C@@H]3c3ccc(F)cc3)c2=O)cc1` showed a pEC50 of 6.33.

As to `COc1ccc(-n2nc(Sc3ccc(Cl)cc3)cc(CC[C@@H](C)NC(=O)[C@H]3CCNC[C@@H]3c3ccc(Cl)cc3Cl)c2=O)cc1`, the pEC50 was 5.62.

For the molecule `COc1ccc(-n2nc(Sc3ccc(Cl)cc3)cc(CC[C@@H](C)NC(=O)[C@H]3CNCC[C@@H]3c3cccc(Cl)c3)c2=O)cc1`, the pEC50 was 6.17.

`COc1ccc(-n2nc(Sc3ccc(Cl)cc3)cc(CC[C@@H](C)NC(=O)[C@H]3CNCC[C@@H]3c3ccc(Cl)cc3)c2=O)cc1`: the pEC50 is 6.68.

In turn, `COc1ccc(-n2nc(Sc3ccc(Cl)cc3)cc(CC[C@@H](C)NC(=O)[C@H]3CCNC[C@@H]3c3ccc(C#N)cc3)c2=O)cc1` gave a pEC50 of 6.92.

A further test addresses T1, Melanocortin receptor 4. The experiment in a line: Inhibition of [125I]-NDP- alpha-MSH binding to human melanocortin 4 receptor expressed in CHO cells. It is filed as cell-based.
In the case of `COc1ccc([C@H]2CNC[C@@H]2C(=O)N[C@H](C)CCc2cc(Sc3ccc(Cl)cc3)nn(-c3ccc(OC)cc3)c2=O)cc1`, the pIC50 is 7.72.

The molecule `COc1ccc(-n2nc(Sc3ccc(Cl)cc3)cc(CC[C@@H](C)N(C)C(=O)C3CNCCC3c3ccc(F)cc3)c2=O)cc1` (some centres undefined) showed a pIC50 of 7.03.

Regarding `COc1ccc(-n2nc(Sc3ccc(Cl)cc3)cc(CC[C@@H](C)NC(=O)[C@@H]3CNCCN3c3ccc(F)cc3)c2=O)cc1`, the pIC50 is 7.55.

`COc1ccc(-n2nc(Sc3ccc(Cl)cc3)cc(CC[C@@H](C)NC(=O)[C@H]3CCNC[C@@H]3c3ccccc3F)c2=O)cc1`: the pIC50 is 7.00.

As for `COc1ccc(-n2nc(Sc3ccc(Cl)cc3)cc(CC[C@@H](C)NC(=O)[C@H]3CNC[C@@H]3c3ccc(F)cc3F)c2=O)cc1`, the pIC50 was 7.22.

As to `COc1ccc(-n2nc(Sc3ccc(Cl)cc3)cc(CC[C@@H](C)NC(=O)[C@H]3CNC[C@@H]3c3ccccc3)c2=O)cc1`, the pIC50 is 7.01.

In the case of `COc1ccc(-n2nc(Sc3ccc(Cl)cc3)cc(CC[C@@H](C)NC(=O)[C@H]3CNC[C@@H]3c3ccc(C)cc3)c2=O)cc1`, the pIC50 was 7.55.

`COc1ccc(-n2nc(Sc3ccc(Cl)cc3)cc(CC[C@@H](C)NC(=O)[C@H]3CNC[C@@H]3c3ccc(Cl)cc3)c2=O)cc1` showed a pIC50 of 7.35.

Take `COc1ccc(-n2nc(Sc3ccc(Cl)cc3)cc(CC[C@@H](C)NC(=O)[C@H]3CNC[C@@H]3c3ccccc3F)c2=O)cc1`: the pIC50 is 6.80.

`COc1ccc(-n2nc(Sc3ccc(Cl)cc3)cc(CC[C@@H](C)NC(=O)[C@H]3CN(C)CC[C@@H]3c3ccc(F)cc3)c2=O)cc1`: the pIC50 is 8.33.

`COc1ccc(-n2nc(Sc3ccc(Cl)cc3)cc(CC[C@@H](C)NC(=O)[C@H]3CCNC[C@@H]3c3ccc(Cl)cc3)c2=O)cc1` showed a pIC50 of 7.24.

In the case of `COc1ccc(-n2nc(Sc3ccc(Cl)cc3)cc(CC[C@@H](C)NC[C@H]3CNCC[C@@H]3c3ccc(F)cc3)c2=O)cc1`, the pIC50 is 7.55.

Turning to `COc1ccc(-n2nc(Sc3ccc(Cl)cc3)cc(CC[C@@H](C)NC(=O)[C@H]3CCNC[C@@H]3c3ccc(Cl)cc3Cl)c2=O)cc1`, the pIC50 was 7.44.

In turn, `COc1ccc(-n2nc(Sc3ccc(Cl)cc3)cc(CC[C@@H](C)NC(=O)[C@H]3CNCC[C@@H]3c3cccc(Cl)c3)c2=O)cc1` gave a pIC50 of 7.37.

With `COc1ccc(-n2nc(Sc3ccc(Cl)cc3)cc(CC[C@@H](C)NC(=O)[C@H]3CNCC[C@@H]3c3ccc(Cl)cc3)c2=O)cc1`, the pIC50 is 8.62.

Take `COc1ccc(-n2nc(Sc3ccc(Cl)cc3)cc(CC[C@@H](C)NC(=O)[C@H]3CCNC[C@@H]3c3ccc(C#N)cc3)c2=O)cc1`: the pIC50 was 7.35.

The values are drawn from ChEMBL document CHEMBL1142811, “Design and syntheses of melanocortin subtype-4 receptor agonists. Part 2: discovery of the dihydropyridazinone motif” (Bioorg Med Chem Lett, 2005).
